Results reported in patent EP0033825A2, “2-Cyano-vinyl-(thiono)(thiol)-phosphoric or phosphonic acid derivatives as endoparasiticidal agents” (priority 1980, dated 1981).
Like-named read-outs stand apart in the source and are kept apart here.

Key:
[1] = tested on: gegen Benzimidazol-Anthelmintika resistenten Haemonchus contortus; test: Haemonchus contortus/sheep test, benzimidazole-resistant strain (faecal egg count before and after oral treatment); type: in vivo; settings: read-out: Dosis effectiva minima (Red. ≥90 %) resistenter Stamm
Source text: (§1) Haemonchus contortus/Schaf
(§2) Experimentell mit normal empfindlichen bzw. mit gegen Benzimidazol-Anthelmintika resistenten Haemonchus contortus infizierte Schafe wurden nach Ablauf der Präpatenzzeit des Parasiten behandelt. Die Wirkstoffe wurde als reiner Wirkstoff in Gelatinekapseln oral appliziert.
(§3) Der Wirkungsgrad wird dadurch bestimmt, daß man die mit dem Kot ausgeschiedenen Wurmeier vor und nach der Behandlung quantitativ auszählt.
(§4) Ein völliges Sistieren der Eiausscheidung nach der Behandlung bedeutet, daß die Würmer abgetrieben wurden oder so geschädigt sind, daß sie keine Eier mehr produzieren (Dosis effectiva).
(§5) Geprüfte Wirkstoffe und wirksame Dosierungen (Dosis effectiva minima) sind aus der nachfolgenden Tabelle ersichtlich: […]

[2] = tested on: normal empfindlichen Haemonchus contortus; test: Haemonchus contortus/sheep test, normally sensitive strain (faecal egg count before and after oral treatment); type: in vivo; settings: Schaf, pure active substance in gelatine capsules, treated after prepatent period, reduction of worm egg excretion ≥90 %, read-out: Dosis effectiva minima (Red. ≥90 %) normal empfind-licher Stamm
Source text: as §1, §2, §3, §4, §5

[3] = Schaf, oral, pure active substance in gelatine capsules, treated after prepatent period, reduction of worm egg excretion ≥90 %, benzimidazole-resistant strain

SMILES: CCCSc1ccc2nc(NC(=O)OC)[nH]c2c1 [Albendazol, Methyl-(5-prepylthio-benzimidazol-2-yl)-carbamat]
- minimal effective dose ([1]; po): 5 mg/kg
- minimal effective dose [2]: 0.5 mg/kg

SMILES: COC(=O)Nc1nc2ccc(Sc3ccccc3)cc2[nH]1 [Fenbendazol, Methyl-(5-phenyl-thie-benzimidazol-2-yl)-carbamat]
- minimal effective dose ([1]; po): 2.5 mg/kg
- minimal effective dose [2]: 0.5 mg/kg

SMILES: CCCCc1ccc2[nH]c(NC(=O)OC)nc2c1 [Parbendazol, 5-N-Butyl-2-methoxycarbonylaminobenzimidazol]
- minimal effective dose ([1]; po): 10 mg/kg
- minimal effective dose [2]: 1 mg/kg

SMILES: c1ccc2[nH]c(-c3cscn3)nc2c1 [Thiabendazol, 2-(4-Thiazolyl)-benzimidazel]
- minimal effective dose ([1]; po): 250 mg/kg
- minimal effective dose [2]: 25 mg/kg

SMILES: CCOP(=S)(OCC)OC(=CC#N)c1cccc(C)c1 [Verbindung Nr. 12]
- minimal effective dose [1, 3]: 1 mg/kg
- minimal effective dose [2]: 1 mg/kg

SMILES: CCOP(=S)(OCC)OC(=CC#N)c1ccccc1Br [Verbindung Nr. 46]
- minimal effective dose [1, 3]: 1 mg/kg
- minimal effective dose [2]: 1 mg/kg

SMILES: CCCOP(=S)(OCC)OC(=CC#N)c1ccccc1C (centres unmarked) [Verbindung Nr. 89]
- minimal effective dose [1, 3]: 2.5 mg/kg
- minimal effective dose [2]: 2.5 mg/kg
